From patent US6187905A, “Alpha-ketoamide derivatives” (Hoffmann-La Roche Inc., priority 1998, dated 2001)
Where two headings read alike, the source gives them in different places. *1 amine or outer side, *2 acyl side, *3 side chain or, on linkers, in order; H or OH if unused. Where a SMILES comes first, the peptide text is derived from it. [ ]: non-standard residue; d: D form. The star is where a group is joined. Phe(2-Me) = Cc1ccccc1C[C@H](N)C(=O)O; NleCONH2 = CCCC[C@H](N*)C(=O)C(N)=O; Suc = O=C(CCC(=O)[*:2])[*:1]; Tle = CC(C)(C)[C@H](N)C(=O)O

Molecular target: HCV proteinase (Hepatitis C virus genotype 1a, UniProt P27958)
Experiment: HCV proteinase inhibition assay (described in WO 98/22496)
Format: biochemical
From the text: As mentioned earlier, the compounds of formula I and their salts are inhibitors of proteases of viral origin. For example, all compounds of formula 1 are inhibitors against HCV protease.

HCV proteinase, sequence (P27958 1027-1208): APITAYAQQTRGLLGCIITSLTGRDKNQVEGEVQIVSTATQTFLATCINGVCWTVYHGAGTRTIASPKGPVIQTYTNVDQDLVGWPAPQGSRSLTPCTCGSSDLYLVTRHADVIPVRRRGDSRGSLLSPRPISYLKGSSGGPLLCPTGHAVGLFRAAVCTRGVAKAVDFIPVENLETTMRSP

| Structure (SMILES) | IC50 | IC50 (read-out: HCV proteinase IC50) |
| --- | --- | --- |
| Cc1ccccc1C[C@H](NC(=O)[C@H](CCC(=O)O)NC(=O)[C@H](CC(=O)O)NC(=O)CCC(=O)O)C(=O)N[C@H](C(=O)N[C@@H](CC(C)C)C(=O)NC(CC(F)(F)F)C(=O)C(=O)N[C@@H](C)c1ccccc1)C(C)(C)C (mixture of isomers) [G, 3(RS)-[[N-[N-[N-[N-[N-(3-Carboxypropionyl)-L-α-aspartyl]-L-α-glutamyl]-2-methyl-L-phenylalanyl]-3-methyl-L-valyl]-L-leucyl]amino]-5,5,5-trifluoro-N-(α(S)-methylbenzyl)-2-oxovaleramide] | 4 nM |  |
| Cc1ccccc1C[C@H](NC(=O)[C@H](CCC(=O)O)NC(=O)[C@H](CC(=O)O)NC(=O)CCC(=O)O)C(=O)N[C@H](C(=O)N[C@@H](CC(C)C)C(=O)NC(CC(F)(F)F)C(=O)C(=O)N[C@H](c1ccccc1)C(C)C)C(C)(C)C (mixture of isomers) [C, 3(RS)-[[N-[N-[N-[N-[N-(3-Carboxypropionyl)-L-α-aspartyl]-L-α-glutamyl]-2-methyl-L-phenylalanyl]-3-methyl-L-valyl]-L-leucyl]amino]-5,5,5-trifluoro-N-(2-methyl-1(S)-phenylpropyl)-2-oxovaleramide] | 7 nM |  |
| COc1cccc(CNC(=O)C(=O)C(CC(F)(F)F)NC(=O)[C@H](CC(C)C)NC(=O)[C@@H](NC(=O)[C@H](Cc2ccccc2C)NC(=O)[C@H](CCC(=O)O)NC(=O)[C@H](CC(=O)O)NC(=O)CCC(=O)O)C(C)(C)C)c1 (mixture of isomers) [F, 3(RS)-[[N-[N-[N-[N-[N-(3-Carboxypropionyl)-L-α-aspartyl]-L-α-glutamyl]-2-methyl-L-phenylalanyl]-3-methyl-L-valyl]-L-leucyl]amino]-5,5,5-trifluoro-N-(3-methoxybenzyl)-2-oxovaleramide] | 6 nM |  |
| Cc1ccccc1C[C@H](NC(=O)[C@H](CCC(=O)O)NC(=O)[C@H](CC(=O)O)NC(=O)CCC(=O)O)C(=O)N[C@H](C(=O)N[C@@H](CC(C)C)C(=O)NC(CC(F)(F)F)C(=O)C(=O)N[C@@H](C)c1ccc2ccccc2c1)C(C)(C)C (mixture of isomers) [A] |  | 4 nM |
| Cc1ccccc1C[C@H](NC(=O)[C@H](CCC(=O)O)NC(=O)[C@H](CC(=O)O)NC(=O)CCC(=O)O)C(=O)N[C@H](C(=O)N[C@@H](CC(C)C)C(=O)NC(CC(F)(F)F)C(=O)C(=O)NCc1ccc(O)cc1)C(C)(C)C (mixture of isomers) [E, 3(RS)-[[N-[N-[N-[N-[N-(3-Carboxypropionyl)-L-α-aspartyl]-L-α-glutamyl]-2-methyl-L-phenylalanyl]-3-methyl-L-valyl]-L-leucyl]amino]-5,5,5-trifluoro-N-(4-hydroxybenzyl)-2-oxovaleramide] | 4 nM |  |
| Cc1ccccc1C[C@H](NC(=O)[C@H](CCC(=O)O)NC(=O)[C@H](CC(=O)O)NC(=O)CCC(=O)O)C(=O)N[C@H](C(=O)N[C@@H](CC(C)C)C(=O)NC(CC(F)(F)F)C(=O)C(=O)N[C@@H](C)c1ccc2ccccc2c1)C(C)(C)C (mixture of isomers) [I] |  | 8 nM |
| Cc1ccccc1C[C@H](NC(=O)[C@H](CCC(=O)O)NC(=O)[C@H](CC(=O)O)NC(=O)CCC(=O)O)C(=O)N[C@H](C(=O)N[C@@H](CC(C)C)C(=O)NC(CC(F)(F)F)C(=O)C(N)=O)C(C)(C)C (single isomer, unassigned) [D, 3(R or S)-[[N-[N-[N-[N-[N-(3-Carboxypropionyl)-L-α-aspartyl]-L-α-glutamyl]-2-methyl-L-phenylalanyl]-3-methyl-L-valyl]-L-leucyl]amino]-5,5,5-trifluoro-2-oxovaleramide] | 7 nM |  |
| CCCC[C@H](NC(=O)[C@H](CC(C)C)NC(=O)[C@@H](NC(=O)[C@H](Cc1ccccc1C)NC(=O)[C@H](CCC(=O)O)NC(=O)[C@H](CC(=O)O)NC(=O)CCC(=O)O)C(C)(C)C)C(=O)C(N)=O [J, 3(S)-[[N-[N-[N-[N-[N-(3-Carboxypropionyl)-L-α-aspartyl]-L-α-glutamyl]-2-methyl-L-phenylalanyl]-3-methyl-L-valyl]-L-leucyl]amino]-2-oxoheptanamide] (Suc-DE[Phe(2-Me)][Tle]L-NleCONH2) | 11.5 nM |  |
| CC[C@H](NC(=O)C(=O)C(CC(F)(F)F)NC(=O)[C@H](CC(C)C)NC(=O)[C@@H](NC(=O)[C@H](Cc1ccccc1C)NC(=O)[C@H](CCC(=O)O)NC(=O)[C@H](CC(=O)O)NC(=O)CCC(=O)O)C(C)(C)C)c1ccccc1 (mixture of isomers) [B, 3(RS)-[[N-[N-[N-[N-[N-(3-Carboxypropionyl)-L-α-aspartyl]-L-α-glutamyl]-2-methyl-L-phenylalanyl]-3-methyl-L-valyl]-L-leucyl]amino]-5,5,5-trifluoro-2-oxo-N-(1(S)-phenylpropyl)valeramide] | 7 nM |  |
| Cc1ccccc1C[C@H](NC(=O)[C@H](CCC(=O)O)NC(=O)[C@H](CC(=O)O)NC(=O)CCC(=O)O)C(=O)N[C@H](C(=O)N[C@@H](CC(C)C)C(=O)NC(CC(F)(F)F)C(=O)C(=O)NCc1ccccc1)C(C)(C)C (mixture of isomers) [H, N-Benzyl-3(RS)-[[N-[N-[N-[N-[N-(3-carboxypropionyl)-L-α-aspartyl]-L-α-glutamyl]-2-methyl-L-phenylalanyl]-3-methyl-L-valyl]-L-leucyl]amino]-5,5,5-trifluoro-2-oxovaleramide] | 4 nM |  |
